“Also recorded” adds a separate entry of the source.
Legend:
[1] = Example 3: pharmacokinetics of Compound 1 and RTV at a range of RTV doses; settings: for Ctau / AUC / Cmax / half-life: Compound 1 in plasma, mean (CV %); for IQ: based on protein binding-adjusted IC50 in PBMCs; for AUC / Cmax / half-life: both, human, plasma, oral; for AUC: AUCtau
[2] = Example 5: drug-drug interaction of zidovudine and Compound 1/r; settings: human, in vivo
From the text: Zidovudine is a NRTI used in HIV patients.
PK parameters were estimated using WinNonlin™ 5.0.1 (Pharsight Corporation, Mountain View, Calif., USA).

[3] = Example 2: safety in subjects infected with HIV-1; type: in vivo, human
Method: Safety: Adverse events, vital signs, electrocardiogram, ophthalmologic examination, and clinical laboratory tests were evaluated for safety. Safety: The proportion of subjects with adverse events was summarized by treatment, system organ class and preferred term for treatment-emergent adverse events, treatment-related adverse events, serious adverse events, and adverse events leading to study drug discontinuation. Adverse events were coded using the Medical Dictionary for Regulatory Activities (MedDRA®) version 8.1. […] Laboratory results were expressed on the original measurement scale and in terms of the toxicity grade. Changes from baseline in quantitative laboratory tests were summarized by visit.

[4] = Example 7: safety of single 400 mg dose; type: in vivo, human; settings: single oral 400 mg dose, fasted and fed, healthy Japanese males
Method: The subjects were admitted to the medical institution in the afternoon on the day before administration (“Day-1”). […] The subjects were discharged the day after administration (“Day 2”). Thus, the subjects were hospitalized for a total of three days. Follow up assessment for safety was performed 6 to 8 days after administration (“Days 7 to 9”).

[5] = human, in vivo
Method: Safety, tolerability, pharmacokinetics, and efficacy were monitored through Day 21 after dosing. The active treatments in the 5 cohorts were as follows: […] The duration of the study was 21 days, with 10 days of treatment and 11 days of follow-up. […] Matching placebo was administered orally under fed conditions. For Cohort 5 only, 100 mg RTV capsules were coadministered orally under fed conditions. […] Pharmacokinetics: The pharmacokinetic parameters of Compound 1 in plasma and peripheral blood mononuclear cells were summarized using descriptive statistics.

[6] = system: HIV-1; assay: Example 2: exposure-response (Emax model) and inhibitory quotient; type: in vivo; settings: simple Emax model on Ctau
[7] = Example 1: multiple-dose safety of Compound 1 alone and with RTV; type: in vivo, human
Method: The single-dose and multiple-dose pharmacokinetics of Compound 1 were also determined. The multiple-dose safety of Compound 1 administered alone and with RTV was also determined. Safety: Safety was evaluated by assessment of clinical laboratory tests at baseline and at various time points during the study; periodic physical examinations, including vital signs; and documentation of adverse events throughout the study. Safety: No statistical inference was performed for safety data in this pharmacokinetic study.

[8] = Example 1: pharmacokinetics of Compound 1 alone and with RTV in healthy subjects; type: in vivo, human; settings: for Ctau / Cmax / half-life / AUC: Compound 1 in plasma; for AUC: N = 12, read-out: AUC (AUCtau)
From the text: The study was an open-label, fixed-sequence, crossover, pharmacokinetic study with 12 subjects. The subjects were healthy males and non-pregnant, nonlactating females between 18 and 45 years of age, inclusive. The duration of the study was 20 days, with Period 1 of Days 1 to 10 and Period 2 of days 11 to 20. Follow-up contact was on day 27.

[9] = target: HIV-1 integrase (Human immunodeficiency virus type 1 group M subtype B, UniProt P04585); settings: after 10 days of monotherapy; through Day 21
[10] = in vivo
Method: Pharmacokinetic (PK) blood draws were performed on days 7, 17, and 27.

[11] = Compound 1 125 mg + 20 mg RTV QD
[12] = Compound 1 125 mg + 50 mg RTV QD
[13] = Compound 1 125 mg + 100 mg RTV QD
[14] = Compound 1 125 mg + 200 mg RTV QD
[15] = 200 mg of Compound 1 twice-daily, 6 subjects
[16] = healthy subjects, Compound 1 100 mg twice daily alone, or with RTV 100 mg twice daily
[17] = both sexes, human, plasma, oral, 100 mg, Day 10, Compound 1 100 mg twice daily alone, mean (% CV)
[18] = both sexes, human, plasma, oral, Day 11, Compound 1 100 mg twice daily + single dose RTV 100 mg, mean
[19] = both sexes, human, plasma, oral, Day 20, Compound 1 100 mg + RTV 100 mg twice daily, mean

COc1cc2c(cc1Cc1cccc(Cl)c1F)c(=O)c(C(=O)O)cn2[C@H](CO)C(C)C [Compound 1, 6-(3-chloro-2-fluorobenzyl)-1-[(2S)-1-hydroxy-3-methylbutan-2-yl]-7-methoxy-4-oxo-1,4-dihydroquinoline-3-carboxylic acid]
Ctau [1, 11]: 73.8 (60.2) ng/ml
Ctau [1, 12]: 251 (27.7) ng/ml
Ctau [1, 13]: 380 (39.9) ng/ml
Ctau [1, 14]: 410 (26.0) ng/ml
IQ [1, 11]: 10.3
IQ [1, 12]: 35.0
IQ [1, 13]: 53.0
IQ [1, 14]: 57.2
AUC ([1]; Compound 1 125 mg + 20 mg RTV QD, after a meal): 10200 ng·h/mL
AUC [1, 12]: 15800 ng·h/mL
AUC [1, 13]: 20300 ng·h/mL
AUC [1, 14]: 20600 ng·h/mL
Cmax [1, 11]: 1370 ng/mL
Cmax [1, 12]: 1560 ng/mL
Cmax [1, 13]: 1830 ng/mL
Cmax [1, 14]: 2030 ng/mL
half-life [1, 11]: 4.34 h
half-life [1, 12]: 9.52 h
half-life [1, 13]: 11.5 h
half-life [1, 14]: 14.3 h
Half-life (48 hour PK profile) [2]: supporting once daily dosing
Subjects with treatment-emergent Grade 3 or 4 laboratory abnormalities ([3]; 50 mg of Compound 1+RTV once-daily, 6 subjects): 1 subject
Subjects with treatment-related fatigue [3, 15]: 2 subjects
Subjects with treatment-related nausea [3, 15]: 2 subjects
Subjects with treatment-emergent Grade 3 or 4 laboratory abnormalities ([3]; 400 mg of Compound 1 twice-daily, 6 subjects): 1 subject
Tolerability ([3]; all dose levels, 10 days, HIV-1 infected subjects): generally well tolerated
Safety and tolerability [4]: safe and well tolerated
Dose proportionality of pharmacokinetics [5]: did not exhibit dose-proportional increases
Emax [6]: 2.32 log10 copies/mL reduction from baseline
Subjects with treatment-emergent AEs considered related to study drugs [7, 16]: 2 of 12
Subjects with treatment-emergent adverse events [7, 16]: 4 of 12
Tolerability ([7]; oral, 100 mg twice daily, Compound 1 up to 20 days, with RTV 100 mg twice daily up to 10 days): well tolerated
mean steady-state exposure (AUCtau, Day 10) lower compared with mean exposure (AUCinf) after a single dose (Day 1) ([8]; Compound 1 100 mg alone, indicating autoinduction of metabolism): approximately 20%
Ctau ([8]; end of dosing interval, Day 1, Compound 1 100 mg alone, mean (% CV)): 19.2 (52.5) ng/mL
Ctau ([8]; Day 10, Compound 1 100 mg twice daily alone, mean (% CV)): 12.4 (63.7) ng/mL
Ctau ([8]; Day 11, Compound 1 100 mg twice daily + single dose RTV 100 mg, mean): 543.3 ng/mL
Ctau ([8]; Day 20, Compound 1 100 mg + RTV 100 mg twice daily, mean): 1035.6 ng/mL
Cmax ([8]; both sexes, human, plasma, oral, 100 mg, Day 1, single dose Compound 1 100 mg alone, mean (% CV)): 200 ng/mL
half-life ([8]; both sexes, human, plasma, oral, 100 mg, Day 1, single dose Compound 1 100 mg alone, median (min, max)): 3.1 h
half-life ([8]; both sexes, human, plasma, oral, 100 mg, Day 10, Compound 1 100 mg twice daily alone, steady state, median (min, max)): 3.5 h
Cmax [8, 17]: 164 ng/mL
AUC [8, 17]: 719 ng·h/mL
AUC(0-inf) ([8]; both sexes, human, plasma, oral, 100 mg, read-out: AUC (AUCinf)): 908 ng·h/mL
Cmax [8, 18]: 795 ng/mL
AUC [8, 18]: 6170 ng·h/mL
half-life ([8]; both sexes, human, plasma, oral, Day 11, Compound 1 100 mg twice daily + single dose RTV 100 mg, median): 18.2 h
half-life ([8]; both sexes, human, plasma, oral, Day 20, Compound 1 100 mg + RTV 100 mg twice daily, steady state, median): 9.5 h
Cmax [8, 19]: 1830 ng/mL
AUC [8, 19]: 14300 ng·h/mL
HIV-1 integrase mutations corresponding to Compound 1 resistance [9]: no subject developed HIV-1 integrase mutations; also recorded: No Compound 1 resistance mutations were detected
PK (Cmax, AUCtau, Ctau) during co-administration vs alone [10]: unaffected

Source: patent US20070219243A1, “Method for improving the pharmacokinetics of HIV integrase inhibitors” (priority 2005, published 2007)
